PMC9960821, “Evaluation of Rhenium and Technetium-99m Complexes Bearing Quinazoline Derivatives as Potential EGFR Agents” (Molecules, 2023)

Experiment: Biodistribution in healthy Swiss Albino mice after intravenous injection
Assay type: in vivo
Conditions: i.v.
Method: The pharmacokinetic profile of complexes 5b and 7b was evaluated in Swiss Albino healthy male mice at 5, 60, and 240 min post intravenous injection. Table 4 presents the results of the biodistribution studies expressed as % Injected Dose (ID)/g ± Standard Deviation (±SD). […] The high lipophilicity characterizing both complexes justifies the rapid hepatobiliary excretion, given the decreasing activity in the liver and the increasing amount of radioactivity in the intestines. Complex 5b presented faster clearance and elimination in the intestines at 60 min p.i. 34.05% of the radioactivity excreted, compared to 29.89% at 240 min p.i. of complex 7b. Radioactivity in the urine remained low in general, however, the lower logD7.4 value of complex 7b explains the relatively higher activity in the urines (7.88 ± 0.71%) as it is slightly more hydrophilic than 5b. Moreover, the low uptake in the brain indicates almost no blood-brain barrier penetration, although the complexes have favorable physicochemical characteristics.
All the biodistribution experiments were carried out in compliance with the national laws and European protocols (2010/63/EU) related to the conduct of animal experimentation. Nine healthy Swiss Albino mice (male, 30 ± 3 g), divided into three groups of three, were injected with the HPLC-purified 5b or 7b complex in saline with 10% EtOH (0.1 mL, ~75 kBq) through the tail vein. For each group, the animals were sacrificed by cardiectomy under slight ether anesthesia 5, 60, and 240 min after the injection. The organs of interest were excised, weighed, and counted in an automatic gamma counter. The bladder and excreted urine were not weighed. The stomach and intestines were not emptied of food contents prior to radioactivity measurements. The percentage of injected dose per organ (%ID/organ) was calculated by comparison of sample radioactivity to standard solutions containing 10% of the injected dose. The calculation for blood and muscle was based on measured activity, sample weight, and body composition data (considering that blood and muscle comprise 7 and 43% of body weight). The percentage of injected dose per gram (%ID/g) was calculated by dividing the %ID/organ by the weight of the organ or tissue.

O=C([O-])CN(CCCCCC(=O)Nc1ccc2ncnc(Nc3cccc(Br)c3)c2c1)Cc1ccccn1.[99Tc+].[C-]#[O+].[C-]#[O+].[C-]#[O+] [Compound 5b, fac-[^99mTc(NNO)(CO)3]]
In vivo stability (low spleen and stomach radioactivity; no oxidation to pertechnetate/TcO2): stable in vivo
Blood %Injected Dose/g (5 min): 0.85 ± 0.23 %Injected Dose/g
Brain %Injected Dose/g (5 min): 0.05 ± 0.02 %Injected Dose/g
Heart %Injected Dose/g (5 min): 0.80 ± 0.12 %Injected Dose/g
Intestines %Injected Dose/g (5 min): 9.22 ± 2.19 %Injected Dose/g
Kidneys %Injected Dose/g (5 min): 8.49 ± 1.33 %Injected Dose/g
Liver %Injected Dose/g (5 min): 27.68 ± 2.32 %Injected Dose/g
Lungs %Injected Dose/g (5 min): 0.97 ± 0.20 %Injected Dose/g
Muscle %Injected Dose/g (5 min): 0.19 ± 0.05 %Injected Dose/g
Pancreas %Injected Dose/g (5 min): 0.63 ± 0.09 %Injected Dose/g
Spleen %Injected Dose/g (5 min): 0.63 ± 0.09 %Injected Dose/g
Stomach %Injected Dose/g (5 min): 0.72 ± 0.25 %Injected Dose/g
Urine % ID (5 min): 0.09 ± 0.06 % ID
Blood %Injected Dose/g (60 min): 0.14 ± 0.03 %Injected Dose/g
Brain %Injected Dose/g (60 min): 0.03 ± 0.00 %Injected Dose/g
Heart %Injected Dose/g (60 min): 0.13 ± 0.03 %Injected Dose/g
Intestines %Injected Dose/g (60 min): 34.05 ± 2.05 %Injected Dose/g
Kidneys %Injected Dose/g (60 min): 1.28 ± 0.17 %Injected Dose/g
Liver %Injected Dose/g (60 min): 1.24 ± 0.24 %Injected Dose/g
Lungs %Injected Dose/g (60 min): 0.13 ± 0.03 %Injected Dose/g
Muscle %Injected Dose/g (60 min): 0.08 ± 0.01 %Injected Dose/g
Pancreas %Injected Dose/g (60 min): 0.10 ± 0.03 %Injected Dose/g
Spleen %Injected Dose/g (60 min): 0.11 ± 0.01 %Injected Dose/g
Stomach %Injected Dose/g (60 min): 0.64 ± 0.27 %Injected Dose/g
Urine % ID (60 min): 1.02 ± 0.17 % ID
Blood %Injected Dose/g (240 min): 0.08 ± 0.01 %Injected Dose/g
Brain %Injected Dose/g (240 min): 0.02 ± 0.00 %Injected Dose/g
Heart %Injected Dose/g (240 min): 0.05 ± 0.01 %Injected Dose/g
Intestines %Injected Dose/g (240 min): 37.28 ± 3.50 %Injected Dose/g
Kidneys %Injected Dose/g (240 min): 0.06 ± 0.01 %Injected Dose/g
Liver %Injected Dose/g (240 min): 0.39 ± 0.08 %Injected Dose/g
Lungs %Injected Dose/g (240 min): 0.08 ± 0.01 %Injected Dose/g
Muscle %Injected Dose/g (240 min): 0.07 ± 0.07 %Injected Dose/g
Pancreas %Injected Dose/g (240 min): 0.09 ± 0.00 %Injected Dose/g
Spleen %Injected Dose/g (240 min): 0.07 ± 0.02 %Injected Dose/g
Stomach %Injected Dose/g (240 min): 0.60 ± 0.18 %Injected Dose/g
Urine % ID (240 min): 1.33 ± 0.14 % ID
